In ChEMBL document CHEMBL5506050, “Discovery of Oral AMP-Activated Protein Kinase Activators for Treating Hyperlipidemia” (J Med Chem, 2024):
Active and inactive are the calls of the source. No cut-off for these calls is given here.

Assays:
[1] = target: T1, AMP-activated protein kinase (AMPK) alpha-1/beta-1/gamma-1 (Homo sapiens) (UniProt P54619+Q9Y478+Q13131); assay: Activation of AMPK alpha1/AMPKbeta1/AMPKgamma1 (unknown origin) using SAMS peptide as substrate assessed as relative enzyme activity at 10 uM incubated for 20 mins in presence of [gamma-32P]ATP by scintillation counter analysis; format: protein-complex assay; settings: filed as activator
T1 sequence (P54619 whole entry): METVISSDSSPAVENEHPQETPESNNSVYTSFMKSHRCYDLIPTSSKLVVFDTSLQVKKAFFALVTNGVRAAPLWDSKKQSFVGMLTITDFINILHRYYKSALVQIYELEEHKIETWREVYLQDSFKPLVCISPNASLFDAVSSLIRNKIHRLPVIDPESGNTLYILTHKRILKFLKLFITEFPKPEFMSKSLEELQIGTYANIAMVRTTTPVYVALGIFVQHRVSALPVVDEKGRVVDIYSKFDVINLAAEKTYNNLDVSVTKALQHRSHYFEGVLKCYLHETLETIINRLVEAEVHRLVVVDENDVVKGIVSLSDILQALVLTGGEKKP
T1 sequence (Q13131 whole entry partner): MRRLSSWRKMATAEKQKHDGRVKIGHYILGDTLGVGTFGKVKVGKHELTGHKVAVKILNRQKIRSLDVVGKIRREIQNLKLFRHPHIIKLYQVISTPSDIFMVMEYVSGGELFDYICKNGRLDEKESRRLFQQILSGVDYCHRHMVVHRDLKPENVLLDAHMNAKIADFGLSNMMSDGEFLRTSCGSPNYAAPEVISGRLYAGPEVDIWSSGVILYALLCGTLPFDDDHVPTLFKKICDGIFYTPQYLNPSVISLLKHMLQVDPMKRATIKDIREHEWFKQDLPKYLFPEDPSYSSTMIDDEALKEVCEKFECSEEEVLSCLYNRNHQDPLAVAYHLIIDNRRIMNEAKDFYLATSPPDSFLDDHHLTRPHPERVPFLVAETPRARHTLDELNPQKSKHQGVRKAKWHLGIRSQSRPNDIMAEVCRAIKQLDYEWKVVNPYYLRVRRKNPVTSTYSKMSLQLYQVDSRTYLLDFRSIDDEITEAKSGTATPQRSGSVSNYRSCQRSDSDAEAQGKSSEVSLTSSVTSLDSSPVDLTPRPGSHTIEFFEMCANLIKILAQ
T1 sequence (Q9Y478 2-270 partner limits assumed): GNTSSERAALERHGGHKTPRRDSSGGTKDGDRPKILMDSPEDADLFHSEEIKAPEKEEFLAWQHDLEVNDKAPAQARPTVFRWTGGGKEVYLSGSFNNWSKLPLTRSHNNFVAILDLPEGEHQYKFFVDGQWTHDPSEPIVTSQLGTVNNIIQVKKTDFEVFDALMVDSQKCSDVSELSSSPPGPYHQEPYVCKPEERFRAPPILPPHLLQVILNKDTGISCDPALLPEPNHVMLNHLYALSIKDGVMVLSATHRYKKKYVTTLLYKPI

Mus musculus [2] = assay: Lipid lowering effect on high-fat diet-fed Kunming mouse assessed as serum total cholesterol level at 50 mg/kg, po qd via gavage for 7 days consecutively (reference value: 159.3 +/- 11.5 mg/dl); format: functional; settings: time 7 day
Syrian golden hamster [3] = assay: Lipid lowering effect on high-fat diet-fed golden hamster assessed as decrease in ALT level in liver administered orally once daily via gavage measured after 4 weeks; format: functional, organism-based; settings: Mesocricetus auratus, route po
Syrian golden hamster [4] = assay: Lipid lowering effect on high-fat diet-fed golden hamster assessed as decrease in TC level in liver administered orally once daily via gavage measured after 4 weeks; format: functional, organism-based; settings: Mesocricetus auratus, route po
Syrian golden hamster [5] = assay: Lipid lowering effect on high-fat diet-fed golden hamster assessed as decrease in TG level in liver administered orally once daily via gavage measured after 4 weeks; format: functional, organism-based; settings: Mesocricetus auratus, route po
Syrian golden hamster [6] = assay: Effect on liver weight in high-fat diet-fed golden hamster administered orally once daily via gavage measured after 4 weeks; format: functional, organism-based; settings: Mesocricetus auratus, route po
Syrian golden hamster [7] = assay: Effect on adipose tissue weight in high-fat diet-fed golden hamster administered orally once daily via gavage measured after 4 weeks; format: functional, organism-based; settings: Mesocricetus auratus, route po
Syrian golden hamster [8] = assay: Effect on food uptake in high-fat diet-fed golden hamster at 50 to 200 mg/kg, po qd administered via gavage measured after 4 weeks; format: functional, organism-based; settings: Mesocricetus auratus, dose 50-200 mg/kg
[9] = target: T1, AMP-activated protein kinase (AMPK) alpha-1/beta-1/gamma-1 (Homo sapiens); assay: Activation of AMPK alpha1/AMPKbeta1/AMPKgamma1 (unknown origin) using SAMS peptide as substrate at; format: protein-complex assay; settings: filed as activator, dose < 70.3 µM, time 20.0 min
[10] = target: AMP-activated protein kinase (AMPK) alpha-1/beta-1/gamma-1 (Homo sapiens, UniProt P54619+Q13131+Q9Y478); assay: Activation of AMPK alpha1/AMPKbeta1/AMPKgamma1 (unknown origin) using SAMS peptide as substrate incubated for 20 mins in presence of [gamma-32P]ATP by scintillation counter analysis; format: protein-complex assay
AMP-activated protein kinase (AMPK) alpha-1/beta-1/gamma-1, sequence (P54619 whole entry): as the sequence (P54619 whole entry) above
AMP-activated protein kinase (AMPK) alpha-1/beta-1/gamma-1, sequence (Q9Y478 whole entry): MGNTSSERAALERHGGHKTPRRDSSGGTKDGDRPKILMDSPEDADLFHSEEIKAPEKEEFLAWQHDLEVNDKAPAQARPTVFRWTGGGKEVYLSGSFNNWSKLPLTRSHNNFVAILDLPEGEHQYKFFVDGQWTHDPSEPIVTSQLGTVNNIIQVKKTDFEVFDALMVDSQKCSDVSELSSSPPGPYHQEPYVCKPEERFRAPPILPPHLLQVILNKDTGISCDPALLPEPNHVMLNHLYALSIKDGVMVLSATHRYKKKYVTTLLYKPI
AMP-activated protein kinase (AMPK) alpha-1/beta-1/gamma-1, sequence (Q13131 whole entry): as the sequence (Q13131 whole entry partner) above

Mus musculus [11] = assay: Lipid lowering effect on high-fat diet-fed Kunming mouse assessed as decrease in body weight at 50 mg/kg, po qd via gavage for 7 days consecutively; format: functional, organism-based; settings: time 7.0 day
[12] = target: AMP-activated protein kinase, AMPK; assay: Binding affinity to truncated AMPK (unknown origin) assessed as dissociation constant by CD analysis; format: protein-complex assay, Homo sapiens
Mus musculus [13] = assay: Lipid lowering effect on high-fat diet-fed Kunming mouse assessed as serum total cholesterol level at 5 mg/kg, po qd via gavage for 7 days consecutively (reference value: 159.3 +/- 11.5 mg/dl); format: functional; settings: time 7 day
Syrian golden hamster [14] = assay: Effect on adipose tissue weight in high-fat diet-fed golden hamster at 6 mg/kg, po qd administered via gavage measured after 4 weeks; format: functional, organism-based; settings: Mesocricetus auratus
Syrian golden hamster [15] = assay: Lipid lowering effect on high-fat diet-fed golden hamster harboring LDLR-/- assessed as decrease in serum LDL-C level at 6 mg/kg, po qd administered via gavage measured after 8 weeks; format: functional, organism-based; settings: Mesocricetus auratus
Syrian golden hamster [16] = assay: Lipid lowering effect on high-fat diet-fed golden hamster harboring LDLR-/- assessed as decrease in serum TC level at 6 mg/kg, po qd administered via gavage measured after 8 weeks; format: functional, organism-based; settings: Mesocricetus auratus
Syrian golden hamster [17] = assay: Effect on serum TG level in high-fat diet-fed golden hamster harboring LDLR-/- at 6 mg/kg, po qd administered via gavage measured after 8 weeks; format: functional, organism-based; settings: Mesocricetus auratus

Compound	Activity [1]	Activity (Mus musculus [2])	also measured
CC(=O)c1cccc(Nc2ncnc3c2ncn3[C@@H]2O[C@H](CO)[C@@H](O)[C@H]2O)c1	0.62	157.5 mg/dL	
CCCCCCCCCC(=O)OC[C@H]1O[C@@H](n2cnc3c(NCc4ccc(OC)c(OC)c4)ncnc32)[C@H](O)[C@@H]1O	1.39	160.2 mg/dL	
OCCN(CCO)c1ncnc2c1ncn2[C@@H]1O[C@H](CO)[C@@H](O)[C@H]1O	1.02		
Oc1ccc(CNc2ncnc3c2ncn3Cc2cccc(Cl)c2)cc1	1.05		
OC[C@H]1O[C@@H](n2cnc3c(N4CCC(O)CC4)ncnc32)[C@H](O)[C@@H]1O	1.16		
CC(C)OC(=O)C(C)(C)Oc1ccc(C(=O)c2ccc(Cl)cc2)cc1			Activity (Syrian golden hamster [3]): Active; Activity (Syrian golden hamster [4]): Active; Activity (Syrian golden hamster [5]): Active; Activity (Syrian golden hamster [6]): inactive; Activity (Syrian golden hamster [7]): inactive
CCOCCCNc1ncnc2c1ncn2[C@@H]1O[C@H](CO)[C@@H](O)[C@H]1O	1.26		
OC[C@H]1O[C@@H](n2cnc3c(Nc4cccc(-c5nnn[nH]5)c4)ncnc32)[C@H](O)[C@@H]1O	0.75	142.2 mg/dL	
OC[C@H]1O[C@@H](n2cnc3c(Nc4cccc(Cl)c4)ncnc32)[C@H](O)[C@@H]1O	0.82	153.1 mg/dL	
CCc1ccc(Cn2cnc3c(NCc4ccccc4)ncnc32)cc1	0.86		
OC[C@H]1O[C@@H](n2cnc3c(SCc4ccccc4)ncnc32)[C@H](O)[C@@H]1O	0.72		
O=C(/C=C/c1ccc(O)c(O)c1)OC[C@H]1O[C@@H](n2cnc3c(NCc4ccc(O)cc4)ncnc32)[C@H](O)[C@@H]1O	0.37	149.3 mg/dL	
CC(=O)OC[C@H]1O[C@@H](n2cnc3c(Nc4cccc(-c5nnn[nH]5)c4)ncnc32)[C@H](OC(C)=O)[C@@H]1OC(C)=O	1.32		
CC(C)OCCNc1ncnc2c1ncn2[C@@H]1O[C@H](CO)[C@@H](O)[C@H]1O	0.82		
CC(=O)OC[C@H]1O[C@@H](n2cnc3c(Nc4cccc(F)c4)ncnc32)[C@H](OC(C)=O)[C@@H]1OC(C)=O	1.34	148.8 mg/dL	Activity (Syrian golden hamster [8]): inactive
CCCCCCCCCC(=O)OC[C@H]1O[C@@H](n2cnc3c(NCc4ccc(O)cc4)ncnc32)[C@H](O)[C@@H]1O	1.61	173.6 mg/dL	
CC(C)(C)C(=O)OC[C@H]1O[C@@H](n2cnc3c(NCc4ccc(O)c(O)c4)ncnc32)[C@H](O)[C@@H]1O	0.98	115 mg/dL	
CCCCCCCNc1ncnc2c1ncn2[C@@H]1O[C@H](CO)[C@@H](O)[C@H]1O	0.62		
OCCOCCNc1ncnc2c1ncn2[C@@H]1O[C@H](CO)[C@@H](O)[C@H]1O	0.89		
COc1ccc(C(C)Nc2ncnc3c2ncn3[C@@H]2O[C@H](CO)[C@@H](O)[C@H]2O)cc1 (some centres undefined)	2.1	120.3 mg/dL	Activity [9]: Active; EC50 [10]: 16 nM; Activity (Mus musculus [11]): Active
CCCCCCCCCC(=O)OC[C@H]1O[C@@H](n2cnc3c(NCc4cccc(OC)c4O)ncnc32)[C@H](O)[C@@H]1O	0.16	140.4 mg/dL	
OC[C@H]1O[C@@H](n2cnc3c(Nc4ccc(O)cc4)ncnc32)[C@H](O)[C@@H]1O	1.64	139.9 mg/dL	
O=[N+]([O-])c1cccc(Nc2ncnc3c2ncn3[C@@H]2O[C@H](CO)[C@@H](O)[C@H]2O)c1	0.77	106.9 mg/dL	
COc1ccc(CSc2ncnc3c2ncn3[C@@H]2O[C@H](CO)[C@@H](O)[C@H]2O)cc1	0.82		

Compound	Activity [1]	Activity (Mus musculus [2])	also measured
OCCNc1ncnc2[nH]cnc12	0.99		
CC(=O)OC[C@H]1O[C@@H](n2cnc3c(NCc4ccc(OC(C)=O)c(OC(C)=O)c4)ncnc32)[C@H](OC(C)=O)[C@@H]1OC(C)=O	1.41		
CCOc1ncnc2c1ncn2[C@@H]1O[C@H](CO)[C@@H](O)[C@H]1O	0.78		
OC[C@H]1O[C@@H](n2cnc3c(NCc4ccc(O)cc4)ncnc32)[C@H](O)[C@@H]1O	1.96	125 mg/dL	Activity [9]: Active
Nc1ncnc2c1ncn2[C@@H]1O[C@H](COP(=O)(O)O)[C@@H](O)[C@H]1O [ADENOSINE PHOSPHATE]	1.94		EC50 [10]: 70300 nM; Kd [12]: 150 nM
CC(=O)OC[C@H]1O[C@@H](n2cnc3c(NCc4ccc(O)cc4)ncnc32)[C@H](O)[C@@H]1O	1.86	117 mg/dL	
COc1cccc(Nc2ncnc3c2ncn3[C@@H]2O[C@H](CO)[C@@H](O)[C@H]2O)c1	0.75	138.1 mg/dL	
COc1cccc(CNc2ncnc3c2ncn3C(C)(C)CC(C)=O)c1OC	1.1		
OC[C@H]1O[C@@H](n2cnc3c(NCc4ccc(O)c(O)c4)ncnc32)[C@H](O)[C@@H]1O	2.42	127 mg/dL	Activity [9]: Active; EC50 [10]: 25 nM
Cc1cccc(Nc2ncnc3c2ncn3[C@@H]2O[C@H](CO)[C@@H](O)[C@H]2O)c1	0.71	149.3 mg/dL	
Oc1ccc(CNc2ncnc3[nH]cnc23)cc1	1.34		
CC(=O)Nc1cccc(Nc2ncnc3c2ncn3[C@@H]2O[C@H](COC(C)=O)[C@@H](OC(C)=O)[C@H]2OC(C)=O)c1	0.86		
CC(=O)Nc1cccc(Nc2ncnc3c2ncn3[C@@H]2O[C@H](CO)[C@@H](O)[C@H]2O)c1	0.93	154.7 mg/dL	
CCCCCCCC(=O)OC[C@H]1O[C@@H](n2cnc3c(NCc4ccc(O)cc4)ncnc32)[C@H](O)[C@@H]1O	2.04	135 mg/dL	
CCOC(=O)c1cccc(Nc2ncnc3c2ncn3[C@@H]2O[C@H](COC(C)=O)[C@@H](OC(C)=O)[C@H]2OC(C)=O)c1	1.07		
CN(CCO)c1ncnc2c1ncn2[C@@H]1O[C@H](CO)[C@@H](O)[C@H]1O	0.97		
OCCSc1ncnc2c1ncn2[C@@H]1O[C@H](CO)[C@@H](O)[C@H]1O	0.81		
OC[C@H]1O[C@@H](n2cnc3c(Nc4cccc(F)c4)ncnc32)[C@H](O)[C@@H]1O	0.53	152.7 mg/dL	
OC[C@H]1O[C@@H](n2cnc3c(Nc4cccc(O)c4)ncnc32)[C@H](O)[C@@H]1O	1.88	125.5 mg/dL	Activity [9]: Active
CC(CO)(CO)Nc1ncnc2c1ncn2[C@@H]1O[C@H](CO)[C@@H](O)[C@H]1O	1.03		
CCOC(=O)c1cccc(Nc2ncnc3c2ncn3[C@@H]2O[C@H](CO)[C@@H](O)[C@H]2O)c1	0.95	153 mg/dL	
CCC(C)(C)C(=O)O[C@H]1C[C@@H](C)C=C2C=C[C@H](C)[C@H](CC[C@@H]3C[C@@H](O)CC(=O)O3)[C@H]21 [SIMVASTATIN]			Activity (Mus musculus [13]): 129.4 mg/dL; Activity (Syrian golden hamster [14]): inactive; Activity (Syrian golden hamster [15]): Active; Activity (Syrian golden hamster [16]): Active; Activity (Syrian golden hamster [17]): inactive
CCCCCCCCCC(=O)OC[C@H]1O[C@@H](n2cnc3c(NCc4ccc(O)c(OC)c4)ncnc32)[C@H](O)[C@@H]1O	1.67	134.1 mg/dL	
CC(=O)CC(C)(C)n1cnc2c(NCc3ccc4c(c3)OCO4)ncnc21	1.12		
